Read-outs that look alike come from different tables or passages of the source.
Biological target: T1, Syk catalytic domain (aa 356-635 with a C-terminal His-tag) (Homo sapiens, UniProt P43405)
T1 construct: His-tag (C); made in house
Experiment: In vitro Syk kinase activity measured by trFRET, Syk catalytic domain
Assay type: biochemical
Experimental: In Vitro Syk Kinase Activity Measured by Time-Resolved Fluorescence Resonance Energy Transfer (trFRET)
0.14 nM purified Syk catalytic domain (aa 356-635 with a C-terminal His-tag purified in-house by immobilized metal ion affinity chromatography) was mixed with 0.2 μM peptide substrate (biotin-TYR1, Sequence: Biotin-(Ahx)-GAEEEIYAAFFA-COOH) at varying inhibitor concentrations in reaction buffer: 50 mM MOPSO pH 6.5, 10 mM MgCl2, 2 mM MnCl2, 2.5 mM DTT, 0.01% BSA, 0.1 mM Na3VO4 and 0.001 mM ATP. After about 60 min incubation at rt, the reaction was quenched by addition of EDTA (final concentration: 100 mM) and developed by addition of revelation reagents (final approximate concentrations: 30 mM HEPES pH 7.0, 0.06% BSA, 0.006% Tween-20, 0.24 M KF, 80 ng/mL PT66K (europium labeled anti-phosphotyrosine antibody cat #61T66KLB Cisbio, Bedford, Mass.) and 0.6 μg/mL SAXL (Phycolink streptavidin-allophycocyanin acceptor, cat #PJ255, Prozyme, San Leandro, Calif.). The developed reaction was incubated in the dark either at about 4° C. for about 14 h or for about 60 min at rt, then read via a time-resolved fluorescence detector (Rubystar, BMG) using a 337 nm laser for excitation and monitoring emission wavelengths at 665 nm. Within the linear range of the assay, the observed signal at 665 nm was directly related to phosphorylated product and can be used to calculate the IC50 values.
MOPSO buffer contains: 50 mM MOPSO pH 6.5, 10 mM MgCl2, 2 mM MnCl2, 2.5 mM DTT, 0.01% BSA, and 0.1 mM Na3VO4 HEPES buffer contains: 50 mM HEPES pH 7.1, 2.5 mM DTT, 10 mM MgCl2, 2 mM MnCl2, 0.01% BSA, and 0.1 mM Na3VO4 MOPS buffer contains: 20 mM MOPS pH 7.2, 10 mM MgCl2, 5 mM EGTA, 5 mM Beta-phosphoglycerol, 1 mM Na3VO4, 0.01% Triton-X-100 and 1 mM DTT
Biotin-TYR1-peptide sequence: Biotin-(Ahx)-GAEEEIYAAFFA-COOH Biotin-TYR2-peptide sequence: Biotin-(Ahx)-AEEEYFFLFA-amide KinEASE 51 peptides were purchased from Cisbio (cat #62ST0PEB, Bedford, Mass.)
PT66K was purchased from Cisbio (cat #61T66KLB, Bedford, Mass.) EuSTK was purchased from Cisbio (cat #62ST0PEB, Bedford, Mass.) SAXL was purchased from Prozyme (cat #PJ25S, San Leandro, Calif.) Human T-Blasts IL-2 pSTAT5 Cellular Assay

[1] = Syk catalytic domain (aa 356-635), trFRET, 0.001 mM ATP

| Compound | IC50 | IC50 [1] |
| --- | --- | --- |
| CN(C)S(=O)(=O)c1ccc(-c2nc(C3CCCCC3)n3c2cnc2[nH]ccc23)cc1 [AC.3.29] | 0.1 to 1 µM |  |
| CC(C)S(=O)(=O)c1ccc(-c2nc(C3CCCCC3)n3c2cnc2[nH]ccc23)cc1 [AC.3.30] | 0.1 to 1 µM |  |
| Cc1ccc(-c2nc(C3CCCCC3)n3c2cnc2[nH]ccc23)cc1 [AC.3.32] | 0.1 to 1 µM |  |
| CC(C)(CO)c1ccc(-c2ncn3c2cnc2[nH]ccc23)cc1 [AC.4.1] | < 0.1 µM |  |
| OCc1ccc(-c2ncn3c2cnc2[nH]ccc23)cc1 [AC.4.2] | 0.1 to 1 µM |  |
| COc1cc(-c2ncn3c2cnc2[nH]ccc23)ccn1 [AC.4.3] | 0.1 to 1 µM |  |
| CC(=O)c1cc(-c2ncn3c2cnc2[nH]ccc23)ccn1 [AC.4.4] | 0.1 to 1 µM |  |
| Cc1cc(-c2ncn3c2cnc2[nH]ccc23)ccn1 [AC.4.5] | 0.1 to 1 µM |  |
| CC(C)(O)c1ccc(-c2ncn3c2cnc2[nH]ccc23)cc1F [AC.4.6] | < 0.1 µM |  |
| CCCNC(=O)c1ccc(-c2ncn3c2cnc2[nH]ccc23)cc1 [AC.4.7] | 0.1 to 1 µM |  |
| COc1ccc(-c2ncn3c2cnc2[nH]ccc23)cc1OC [AC.4.8] | < 0.1 µM |  |
| COc1ccc(-c2ncn3c2cnc2[nH]ccc23)cc1Cl [AC.4.9] | < 0.1 µM |  |
| COc1ccc(-c2ncn3c2cnc2[nH]ccc23)cc1C [AC.4.10] | < 0.1 µM |  |
| CC(=O)N1CCC[C@@H]1c1nc(-c2ccc(C(C)(C)O)cc2)c2cnc3[nH]ccc3n12 [AC.5.1] | 0.1 to 1 µM |  |
| CC(=O)N[C@@H]1C[C@H](c2nc(-c3ccc(C(C)(C)O)cc3)c3cnc4[nH]ccc4n23)N(S(=O)(=O)C2CC2)C1 [AC.5.2] | 0.1 to 1 µM |  |
| Cc1ncccc1-c1nc(-c2ccc(C(C)(C)O)cc2)c2cnc3[nH]ccc3n12 [AC.5.3] | 0.1 to 1 µM |  |
| CC(C)(O)c1ccc(-c2ncn3c2cnc2[nH]cc(C4=CCNCC4)c23)cc1 [AC.5.4] | 1 to 10 µM |  |
| CC(C)(O)c1ccc(-c2nc(CCCN)n3c2cnc2[nH]ccc23)cc1 [AC.5.5] | 0.1 to 1 µM |  |
| CC(C)(O)c1ccc(-c2nc(CN)n3c2cnc2[nH]ccc23)cc1 [AC.5.6, 2-(4-(1-(Aminomethyl)-6H-imidazo[1,5-a]pyrrolo[2,3-e]pyrazin-3-yl)phenyl)propan-2-ol] | 1 to 10 µM |  |
| CC(C)(O)c1ccc(-c2nc(CNC(=O)CO)n3c2cnc2[nH]ccc23)cc1 [AC.5.7] | 0.1 to 1 µM |  |
| CC(C)(O)c1ccc(-c2nc(C3CC3)n3c2cnc2[nH]ccc23)cc1 [AC.5.8] | < 0.1 µM |  |
| CC(=O)N1CCC[C@H]1c1nc(-c2ccc(C(C)(C)O)cc2)c2cnc3[nH]ccc3n12 [AC.5.9] | 1 to 10 µM |  |
| CC(C)(O)c1ccc(-c2nc(-c3cccnc3)n3c2cnc2[nH]ccc23)cc1 [AC.6.1] |  | < 0.1 µM |
| CC(C)(O)c1ccc(-c2nc(C3CCOCC3)n3c2cnc2[nH]cc(C#N)c23)cc1 [AE.1.1] | 1 to 10 µM |  |
| Cc1nc(-c2ccc(CN3CCOCC3)cc2)c2cnc3[nH]ccc3n12 [AH.1.1] | 0.1 to 1 µM |  |
| COc1ccc(-c2nn(C)c3c2cnc2[nH]cc(Br)c23)cc1 [AK.1, 8-Bromo-3-(4-methoxyphenyl)-1-methyl-1,6-dihydropyrazolo[3,4-d]pyrrolo[2,3-b]pyridine] |  | < 0.1 µM |

| Compound | IC50 | IC50 [1] |
| --- | --- | --- |
| Cn1cc(-c2cc3c(ncc4cnn(C)c43)[nH]2)c2cc(C(=O)O)ccc21 [AN.1, 1-Methyl-3-(1-methyl-1,6-dihydropyrazolo[3,4-d]pyrrolo[2,3-b]pyridin-7-yl)-1H-indole-5-carboxylic acid] |  | < 0.1 µM |
| Cn1ncc2cnc3[nH]c(-c4cccn4CC(=O)O)cc3c21 [AN.1.2, 2-(2-(1-methyl-1,6-dihydropyrazolo[3,4-d]pyrrolo[2,3-b]pyridin-7-yl)-1H-pyrrol-1-yl)acetic acid] | > 10 µM |  |
| Cn1cc(-c2cc3c(ncc4cnn(C)c43)[nH]2)c2ccc(C(=O)O)cc21 [AN.1.3] | < 0.1 µM |  |
| Cn1nc(-c2ccc(S(C)(=O)=O)cc2)c2cnc3[nH]ccc3c21 [AR.1.1] | 0.1 to 1 µM |  |
| CSc1ccc(-c2nn(C)c3c2cnc2[nH]ccc23)cc1 [AU.1, 1-Methyl-3-(4-(methylthio)phenyl)-1,6-dihydropyrazolo[3,4-d]pyrrolo[2,3-b]pyridine] |  | < 0.1 µM |
| COc1ccc(-c2nn(C)c3c2cnc2[nH]ccc23)cc1 [AU.1.1, 3-(4-methoxyphenyl)-1-methyl-1,6-dihydropyrazolo[3,4-d]pyrrolo[2,3-b]pyridine] | < 0.1 µM |  |
| COc1ccc(-c2n[nH]c3c2cnc2[nH]ccc23)cc1 [AU.1.2] | < 0.1 µM |  |
| COc1ccc(-c2nn(CCO)c3c2cnc2[nH]ccc23)cc1 [AU.1.3] | 0.1 to 1 µM |  |
| Cc1nc(-c2ccc(C(C)(C)O)cc2)c2cnc3[nH]cc(Br)c3n12 [AY.1, 2-(4-(8-Bromo-1-methyl-6H-imidazo[1,5-a]pyrrolo[2,3-e]pyrazin-3-yl)phenyl)propan-2-ol] |  | < 0.1 µM |
| CC(C)(O)c1ccc(-c2nc(C3CCCNC3)n3c2cnc2[nH]ccc23)cc1 (stereo not drawn) [D.2.1] |  | < 0.1 µM |
| CC(C)(O)c1ccc(-c2nc([C@@H]3CCCN(C(=O)C4(C#N)CC4)C3)n3c2cnc2[nH]ccc23)cc1 [D.2.2] |  | 0.1 to 1 µM |
| Cn1ncc2cnc3[nH]c(-c4ccc(C(C)(C)O)cc4)c(C#N)c3c21 [D.2.3] |  | < 0.1 µM |
| CC(C)(O)c1ccc(-c2nc(-c3cccnc3CO)n3c2cnc2[nH]ccc23)cc1 [D.2.4] |  | 0.1 to 1 µM |
| CC(C)(O)c1ccc(-c2nc(-c3cccnc3C#N)n3c2cnc2[nH]ccc23)cc1 [D.3.1] |  | < 0.1 µM |
| CN(C)CCNC(=O)Cc1cccc(-c2cc3c(ncc4cnn(C)c43)[nH]2)c1 [Example 1, N-(2-(dimethylamino)ethyl)-2-(3-(1-methyl-1,6-dihydropyrazolo[3,4-d]pyrrolo[2,3-b]pyridin-7-yl)phenyl)acetamide] |  | 0.1 to 1 µM |
| c1ccc(-c2nc(C3CCCCC3)n3c2cnc2[nH]ccc23)cc1 [Example 2, 1-Cyclohexyl-3-phenyl-6H-imidazo[1,5-a]pyrrolo[2,3-e]pyrazine] |  | 1 to 10 µM |
| O=C(O)/C=C/c1nc(C2CCCCC2)n2c1cnc1[nH]ccc12 [Example 3, (E)-3-(1-Cyclohexyl-6H-imidazo[1,5-a]pyrrolo[2,3-e]pyrazin-3-yl)acrylic acid] |  | 0.1 to 1 µM |
| CCc1c(-c2ccc(C(C)(C)O)cc2)[nH]c2ncc3nccn3c12 [Example 4, 2-(4-(1-Ethyl-3H-imidazo[1,2-a]pyrrolo[2,3-e]pyrazin-2-yl)phenyl)propan-2-ol] |  | 0.1 to 1 µM |
| COc1ccc2c(c1)c(-c1cc3c(ncc4cnc(CCCNC(C)=O)n43)[nH]1)cn2C [Example 5, N-(3-(7-(5-Methoxy-1-methyl-1H-indol-3-yl)-6H-imidazo[1,5-a]pyrrolo[2,3-e]pyrazin-1-yl)propyl)acetamide] |  | < 0.1 µM |
| CC(C)(O)c1ccc(-c2nc(-c3cccnc3C#N)n3c2cnc2[nH]ccc23)cc1 [Example 6, 3-(3-(4-(2-Hydroxypropan-2-yl)phenyl)-6H-imidazo[1,5-a]pyrrolo[2,3-e]pyrazin-1-yl)picolinonitrile] |  | 1 to 10 µM |
| CC(C)(O)c1ccc(-c2nc(-c3ccccc3CN)n3c2cnc2[nH]ccc23)cc1 [Example 7, 2-(4-(1-(2-(Aminomethyl)phenyl)-6H-imidazo[1,5-a]pyrrolo[2,3-e]pyrazin-3-yl)phenyl)propan-2-ol] |  | 0.1 to 1 µM |
| Cn1cc(-c2cc3c(ncc4cnn(C)c43)[nH]2)c2cc(C(=O)NS(C)(=O)=O)ccc21 [Example 8, 1-Methyl-3-(1-methyl-1,6-dihydropyrazolo[3,4-d]pyrrolo[2,3-b]pyridin-7-yl)-N-(methylsulfonyl)-1H-indole-5-carboxamide] |  | < 0.1 µM |
| COc1ccc2c(c1)c(-c1cc3c4c(cnc3n1COP(=O)(O)O)cnn4C)cn2C [Example 9, (7-(5-Methoxy-1-methyl-1H-indol-3-yl)-1-methylpyrazolo[3,4-d]pyrrolo[2,3-b]pyridin-6(1H)-yl)methyl dihydrogen phosphate] |  | 1 to 10 µM |
| COc1ccc2c(c1)c(-c1cc3c(ncc4cnc(C)n43)n1COP(=O)(O)O)cn2C [Example 10, (7-(5-Methoxy-1-methyl-1H-indol-3-yl)-1-methyl-6H-imidazo[1,5-a]pyrrolo[2,3-e]pyrazin-6-yl) methyl disodium phosphate] |  | 1 to 10 µM |
| Cc1nc(-c2ccc(C(C)(C)O)cc2)c2cnc3[nH]c(Br)cc3n12 [Example 11, 2-(4-(7-Bromo-1-methyl-6H-imidazo[1,5-a]pyrrolo[2,3-e]pyrazin-3-yl)phenyl)propan-2-ol] |  | 0.1 to 1 µM |
